These are literature values, as cited in patent US7122627B2, “Lactam inhibitors of Hepatitis C virus NS3 protease” (Bristol-Myers Squibb Company, priority 1999, dated 2006).

Broadly, the Ki is the equilibrium dissociation constant of an inhibitor or competing ligand from its target.

[ ]: non-standard residue; d: D form.

On to Ac-Asp-Glu-Dpa-Glu-Cha-Cys-OH, for which, at HCV protease (reported in Biochemistry 37 (1998)), the Ki was below 1000 nM.

For alpha interferon and ribavirin, in the data set on Hepatitis C virus (HCV) (combination therapy, Poynard et al. Lancet 1998), the “patients with sustained efficacy” value is on record as 40%. As to Ac-D[dD]IVPC-OH, the “effectiveness compared with all L isomer” value in the data set with HCV protease (Llinas-Brunet et al. Bioorg. Med. Chem. Lett. 8 1713-1718 (1998)) is recorded as “more effective than its all “L” isomer”. Regarding alpha interferon, the “patients in whom treatment is effective” value with Hepatitis C virus (HCV) (current treatment, monotherapy) is listed as 15-20%.
